Experiment [1] deals with engineered REC-1 PLCγ2^L845F cells. The experiment is described as follows: Cancer cell growth in vitro, CellTiter-Glo, 6 days. Format: cell-based. The settings on record: 6 days after administration, compared to Ibrutinib (FIG. 1C). The protocol:
(§1) Parental REC1 cells were obtained from the American Type Culture Collection (ATCC). PLCγ2 gene in REC-1 cell line was edited using the CRISPR-Cas9 technology to create a S to Y point mutation at residue 707 of PLCγ2 protein, or L to F point mutation at residue 845 of PLCγ2 protein. For gene editing, first, gRNA complex of PLCγ2 S707Y or PLCγ2 L845F was prepared with Alt-R CRISPR-Cas9 tracrRNA and crRNA PLCγ2 S707Y (5′-[…]-3′) or PLCγ2 L845F (5′-[…]-3′) (IDT-Integrated DNA Technologies), and then ribonucleoprotein (RNP) complex of PLCγ2 S707Y or PLCγ2 L845F was prepared with respective gRNA complex and Alt-R S.p. Cas9 Nuclease V3 (IDT-Integrated DNA Technologies). […]
(§2) Parental REC1 cells (ATCC), engineered REC1 PLCγ2^S707Y cells, or engineered REC-1 PLCγ2^L845F cells, were plated in 96-well plates at 8,000 cells/well in 90 μl of RPMI1640 growth medium containing 10% heat-inactivated FBS and 1× Penicillin Streptomycin, and then incubated at 37° C. overnight. […] The plates were then incubated at room temperature for 10 minutes and luminescence was recorded by EnSpire plate reader (PerkinElmer).
On the technique in general: Cellular ATP, detected with luciferase, serves as a proxy for viable cell number.

Experiment [2] deals with engineered REC1 PLCγ2^S707Y cells. The experiment is described as follows: Cancer cell growth in vitro, CellTiter-Glo, 6 days. It is filed as cell-based. Particulars: 6 days after administration, compared to Ibrutinib (FIG. 1B). The protocol: as §1, §2
Experiment [3] deals with engineered REC1 PLCγ2^S707Y knock-in tumors. The experiment is described as follows: Mouse xenograft tumor model, REC1 PLCγ2^S707Y knock-in. Format: in vivo. The settings on record: for TGI: 14 days after administration, S707Y tumors. The protocol:
(§3) Parental REC1 cells (ATCC), engineered REC1 PLCγ2^S707Y cells, and engineered REC-1 PLCγ2^L845F cells, as described in Example 1, were maintained in vitro as monolayer culture in RPMI1640 medium supplemented with 10% fetal bovine serum and 1× Penicillin Streptomycin at 37° C. in an atmosphere of 5% CO2 in air. The tumor cells were routinely subcultured twice weekly. The cells growing in an exponential growth phase were harvested and counted for tumor inoculation. Each mouse was inoculated subcutaneously at the armpit of the right flank with 5×10^6 tumor cells in 0.1 mL of PBS mixed with 0.1 mL matrigel for tumor development. Treatment of the BTK degrader of Formula I-D (1.5 mg/kg, 3 mg/kg, 6 mg/kg, or 15 mg/kg, PO), Ibrutinib (25 mg/kg, PO), or vehicle (PO) started when the average tumor size reached approximately 100 mm^3. Mice were assigned into groups using an Excel-based randomization software performing stratified randomization based upon their tumor volumes. Tumor sizes were measured 3 times weekly in two dimensions using a caliper, and the volume was expressed in mm^3 using the formula: V=0.5 a×b^2 where a and b are the long and short diameters of the tumor, respectively. Tumor growth inhibition (TGI) was calculated for each group using the formula: TGI (%)=[1−(Ti−T0)/(Vi−V0)]×100; Ti is the average tumor volume of a treatment group on a given day, T0 is the average tumor volume of the treatment group on the first day of treatment, Vi is the average tumor volume of the vehicle control group on the same day with Ti, and V0 is the average tumor volume of the vehicle group on the first day of treatment.

Experiment [4] deals with engineered REC1 PLCγ2^L845F knock-in tumors. The experiment is described as follows: Mouse xenograft tumor model, REC1 PLCγ2^L845F knock-in. Format: in vivo. Particulars: for TGI: 14 days after administration, L845F tumors. The protocol:
as §3

By TGI is commonly meant the reduction of tumour growth relative to the control group. Take `COc1ccc(F)cc1C(=O)NCc1ccc(-c2nn(-c3ccc(N4CCC(CN5CCN(c6ccc7c(c6)CN(C6CCC(=O)NC6=O)C7=O)CC5)CC4)c(F)c3)c3ncnc(N)c23)cc1` (stereo not drawn) [Formula I-D]: the cell growth inhibition result in experiment [1] and in experiment [2] was “significantly inhibited cell growth” throughout. For the same molecule, the TGI in experiment [3] (3 mg/kg PO) amounted to 61%; in experiment [3] (6 mg/kg PO), 74%; in experiment [3] (15 mg/kg PO), 86%; in experiment [4] (3 mg/kg PO), 63%; in experiment [4] (6 mg/kg PO), 81%; in experiment [4] (15 mg/kg PO), 88%. Moreover, the “tumor growth inhibition vs Ibrutinib” value in experiment [3] (REC1 PLCγ2^S707Y knock-in mice, PO, 14 days after administration (FIG. 2B)) is “significantly inhibited tumor growth”; in experiment [4] (REC-1 PLCγ2^L845F knock-in mice, PO, 14 days after administration (FIG. 2C)), “significantly inhibited tumor growth”.

As for `C=CC(=O)N1CCC[C@@H](n2nc(-c3ccc(Oc4ccccc4)cc3)c3c(N)ncnc32)C1` [Ibrutinib, reference compound], the figures for the TGI in experiment [3] (Ibrutinib 25 mg/kg PO) and in experiment [4] (Ibrutinib 25 mg/kg PO) were 5% and 12%, respectively.

These data come from patent US20250352548A1, “BTK Reducing Molecules for Treatment of Cancers and Immune System Disorders” (Accutar Biotechnology, Inc., priority 2022, published 2025).
